A short description of this data set: Examination of the resistance to hydrolysis by 1H-NMR on storage. It is filed as physicochemical. Conditions: 20% solution in DMSO-d6/D2O (1:1); for hydrolysis products in the 1H-NMR spectrum at the start of the investigation: 37° C., at the start / immediately. The method, then: To examine the hydrolysis stabilities of the monomers MAM-EDTA and MA-EDTA, respectively, in each case a 20% solution in DMSO-d6/D2O (1:1) was stored at 37° C. At certain intervals, the ^1H-NMR spectra of these solutions were recorded. […] After 119 days' storage at 37° C., approx. 50% of the methacrylic ester groups had been hydrolyzed. In contrast, the monomer MAM-EDTA according to the invention was clearly more hydrolysis-resistant.

Turning to “EDTA-di(2-methacryloyloxyethyl)ester [MA-EDTA]”, the “hydrolysis products in the 1H-NMR spectrum at the start of the investigation” value is “a second double-bond signal could be observed immediately”. For the same substance, the “methacrylic ester groups hydrolyzed” value (after 119 days' storage at 37° C., 1H-NMR) is “approx. 50%”.

Consider “EDTA-di(5-methacrylamidopentyl)ester [MAM-EDTA]”, for which the “hydrolysis products in the 1H-NMR spectrum at the start of the investigation” value is recorded as “no hydrolysis products could be recognized”. Moreover, the “additional double-bond signals in the 1H-NMR spectrum” value (after 119 days at 37° C.) was “no additional double-bond signals could be detected”.
